From the NIST ThermoML archive (doi:10.1016/j.jct.2016.05.021)

Legend:
[1] = 100 kPa; for speed of sound: Frequency=3 MHz, Sing-around technique in a fixed-path interferometer; for mass density: Vibrating tube method
[2] = refractive index (Na D-line) (dimensionless); details: 100 kPa, Standard Abbe refractometry
[3] = xn = mol fraction of the nth substance listed; details: 100 kPa, Liquid, x1 = 1; for speed of sound: Frequency=3 MHz, Sing-around technique in a fixed-path interferometer; for mass density: Vibrating tube method
[4] = refractive index (Na D-line) (dimensionless); xn = mol fraction of the nth substance listed; details: 100 kPa, Liquid, Standard Abbe refractometry, x1 = 1

CCCC[n+]1ccn(C)c1.O=S(=O)([N-]S(=O)(=O)C(F)(F)F)C(F)(F)F
Liquid
Details	mass density, [1] [kg/m3]	refractive index, [2]	speed of sound, [1] [m/s]
298.15 K	1433.72	1.42671	1227.9
303.15 K	1428.95	1.42523	1216.8
308.15 K	1424.18	1.42374	1205.8
313.15 K	1419.41	1.42225	1195
318.15 K	1414.64	1.42076	1184.2
323.15 K	1409.87	1.41923	1173.6

CCCC[n+]1ccn(C)c1.O=S(=O)([N-]S(=O)(=O)C(F)(F)F)C(F)(F)F + O=C1CCCN1
Details	mass density, [3] [kg/m3]	refractive index, [4]	speed of sound, [3] [m/s]
298.15 K	1433.72	1.42671	1227.9
303.15 K	1428.95	1.42523	1216.8
308.15 K	1424.18	1.42374	1205.8
313.15 K	1419.41	1.42225	1195
318.15 K	1414.64	1.42076	1184.2
323.15 K	1409.87	1.41923	1173.6

O=C1CCCN1 [2-pyrrolidinone]
Metastable liquid
Details	mass density, [1] [kg/m3]	refractive index, [2]	speed of sound, [1] [m/s]
298.15 K	1107.16	1.48591	1634.3
303.15 K	1103.07	1.48403	1617.7
308.15 K	1098.99	1.48218	1602.3
313.15 K	1094.9	1.48033	1585.4
318.15 K	1090.82	1.47841	1569.4
323.15 K	1086.75	1.47649	1553.5
